What was measured:
Assay in all cases: relative viability (nuclei count vs DMSO), 5 days (fraction); higher = more cells survive
[1] = compound: CC1=NN=C(O1)C2=NN=C(C=C2)N3CCC(CC3)OC4=C(C=CC(=C4)F)Cl + Cc1nc(Nc2ncc(C(=O)Nc3c(C)cccc3Cl)s2)cc(N2CCN(CCO)CC2)n1 [Dasatinib] (partner 0.075 µM)
Outline: (§1)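 Lung cancer cell lines were seeded in 1536-well plates and dosed by pin tool the next day, with either a single drug or a fixed anchor-drug dose combined with five library-drug doses (not always all listed) spaced in √10 steps. Five days later, one step fixed the cells and stained their nuclei (final 0.05% Triton X-100, 1% formaldehyde, 1 ug/ml Hoechst), and nuclei were counted on 4× images. Relative viability is the nuclei count in treated wells divided by the count in vehicle wells, and each value is the median of duplicate plates.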

[2] = compound: CC1=NN=C(O1)C2=NN=C(C=C2)N3CCC(CC3)OC4=C(C=CC(=C4)F)Cl + O=C(CCCCCCC(=O)Nc1ccccc1)NO [Vorinostat] (partner 1 µM)
Outline: as §1

[3] = compound: CC(C)C[C@@H](C(=O)N[C@H](C(=O)OC1CCCC1)c1ccccc1)[C@H](O)C(=O)NO [Tosedostat] + O=C(CCCCCCC(=O)Nc1ccccc1)NO [Vorinostat] (partner 1 µM)
Outline: as §1

[4] = compound: CC1=NN=C(O1)C2=NN=C(C=C2)N3CCC(CC3)OC4=C(C=CC(=C4)F)Cl + Nc1ncn([C@H]2C[C@H](O)[C@@H](CO)O2)c(=O)n1 [Decitabine] (partner 2 µM)
Outline: as §1

Row | Cell Line | relative viability ([1]; first compound 0.253 µM) | relative viability ([1]; first compound 0.8 µM) | relative viability ([1]; first compound 2.53 µM) | relative viability ([1]; first compound 8 µM) | relative viability ([2]; first compound 0.253 µM) | relative viability ([2]; first compound 0.8 µM) | relative viability ([2]; first compound 2.53 µM) | relative viability ([2]; first compound 8 µM) | relative viability ([3]; first compound 0.02 µM) | relative viability ([3]; first compound 0.06325 µM) | relative viability ([3]; first compound 0.2 µM) | relative viability ([3]; first compound 0.6325 µM) | relative viability ([3]; first compound 2 µM) | relative viability ([4]; first compound 0.253 µM) | relative viability ([4]; first compound 0.8 µM) | relative viability ([4]; first compound 2.53 µM) | relative viability ([4]; first compound 8 µM)
1 | HCC-78 | 0.413 | 0.302 | 0.341 | 0.244 | 0.425 | 0.48 | 0.393 | 0.381 | 0.472 | 0.42 | 0.452 | 0.501 | 0.486 | 0.491 | 0.43 | 0.397 | 0.509
2 | NCI-H1437 | 0.584 | 0.279 | 0.418 | 0.268 | 0.492 | 0.491 | 0.523 | 0.376 | 1.04 | 0.754 | 0.976 | 1.12 | 0.958 | 0.376 | 0.383 | 0.399 | 0.368
3 | SK-LU-1 | 0.166 |  | 0.0949 | 0.119 | 0.675 | 0.629 | 0.662 | 0.589 | 0.897 | 0.721 | 0.717 | 0.677 | 0.717 | 0.667 | 0.517 | 0.595 | 0.557
4 | NCI-H2347 |  | 0.343 | 0.33 | 0.277 | 0.629 | 0.597 | 0.428 | 0.501 | 0.496 | 0.451 | 0.681 | 0.498 | 0.575 | 0.544 | 0.593 | 0.568 | 0.471
5 | BEN | 0.375 | 0.508 | 0.321 | 0.24 | 0.566 | 0.536 | 0.551 | 0.538 | 0.645 | 0.602 | 0.678 | 0.761 | 0.888 | 0.75 | 0.775 | 0.713 | 0.668
6 | LCLC-103H | 0.401 | 0.392 | 0.449 | 0.427 | 0.503 | 0.478 | 0.531 | 0.475 | 0.787 | 0.773 | 0.761 | 0.776 | 0.784 | 0.491 | 0.694 | 0.552 | 0.435
7 | EKVX | 0.513 | 0.464 | 0.436 | 0.532 | 0.439 | 0.381 | 0.442 | 0.463 | 0.722 | 0.647 | 0.764 | 0.688 | 0.773 | 0.292 | 0.261 | 0.309 | 0.225
8 | ABC-1 | 0.457 | 0.32 | 0.318 | 0.361 | 0.542 | 0.487 | 0.402 | 0.525 | 1.33 | 1.29 | 0.954 | 0.974 | 0.693 | 0.49 | 0.539 | 0.406 | 0.423
9 | PC-3 [JPC-3] | 0.944 | 0.813 | 0.877 | 0.852 | 0.703 | 0.526 | 0.797 | 0.478 | 0.861 | 0.949 | 0.656 | 0.606 | 0.561 | 0.774 | 0.747 | 0.801 | 0.732
10 | NCI-H23 | 0.622 |  | 0.79 | 0.71 | 0.565 | 0.359 | 0.558 | 0.514 | 0.646 | 0.52 | 0.707 | 0.502 | 0.51 | 0.268 | 0.328 | 0.295 | 0.282
11 | NCI-H1793 | 0.378 | 0.342 | 0.448 | 0.371 | 0.683 | 0.567 | 0.79 | 0.666 | 0.683 | 0.72 | 0.714 | 0.665 | 0.684 | 0.468 | 0.482 | 0.343 | 0.452
12 | LC-2-ad | 0.4 | 0.389 | 0.48 | 0.505 | 0.321 | 0.254 | 0.322 | 0.284 | 0.835 | 0.702 | 0.7 | 0.688 | 0.512 | 0.335 | 0.314 | 0.381 | 0.348
13 | COR-L 105 | 0.329 | 0.346 | 0.413 | 0.489 | 0.797 | 0.919 | 0.794 | 0.8 | 0.92 | 0.825 | 1.1 | 0.785 | 0.759 | 0.676 | 0.592 | 0.667 | 0.638
14 | H3255 | 0.316 | 0.434 | 0.404 | 0.338 | 0.581 | 0.597 | 0.533 | 0.557 | 0.759 | 0.752 | 0.799 | 0.608 | 0.783 | 0.484 | 0.525 | 0.464 | 0.564
15 | NCI-H2087 | 0.597 | 0.458 | 0.581 | 0.515 | 0.242 | 0.376 | 0.408 | 0.291 | 0.718 | 0.667 | 0.66 | 0.735 | 0.667 | 0.238 | 0.265 | 0.268 | 0.271
16 | NCI-H1915 | 0.324 | 0.257 | 0.311 | 0.285 | 0.457 | 0.219 | 0.401 | 0.325 | 0.51 | 0.457 | 0.516 | 0.503 | 0.527 | 0.255 | 0.223 | 0.242 | 0.217
17 | HOP-62 | 0.571 | 0.633 | 0.606 | 0.6 | 0.543 | 0.243 | 0.287 | 0.203 | 0.819 | 0.516 | 0.612 | 0.561 | 0.372 | 0.189 | 0.184 | 0.19 | 0.18
18 | LU99A | 0.517 | 0.674 | 0.728 | 0.509 | 0.549 | 0.456 | 0.534 | 0.563 | 0.573 | 0.583 | 0.445 | 0.388 | 0.381 | 0.891 | 0.913 | 0.812 | 0.834
19 | ChaGo-K-1 | 0.604 | 0.531 | 0.654 | 0.352 | 0.546 | 0.444 | 0.55 | 0.448 | 0.803 | 0.754 | 0.771 | 0.717 | 0.62 | 0.392 | 0.465 | 0.391 | 0.374

From the supplement of paper PMC10307832
